We go through 15 compounds from PubChem BioAssay (NCI).

Common to all, as to assay: inhibition of tumour cell growth, NCI panel, 48 h
Assay [1] relates to SW-620 colon.
The subject of assay [2] is 786-0 renal.
Assay [3] has as its system MDA-MB-435.
Assay [4] deals with SN12C renal.
Assay [5] deals with SNB-75 CNS.
In assay [6] the test system is HL-60(TB) leukemia.
Assay [7] relates to RPMI-8226 leukemia.
Assay [8] has as its system HT29 colon.
In assay [9] the test system is NCI-H522 lung.

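Exposure lasted 48 hours, with cells grown in 96-well plates and compounds tested at five concentrations. GI50: concentration for 50% inhibition of growth. At the TGI there is no net growth.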

For `COc1c2c3ccccc3nc-2n(C)c2ccccc12`, the GI50 in assay [1] was 7.97 µM; in assay [2], 6.54 µM; in assay [3] it was 13.9 µM; in assay [4], 7.27 µM; in [5], 14.1 µM; in assay [6], 9.88 µM. The GI50 in assay [7] is 6.04 µM; in [8], 4.75 µM; in [9], 49.2 µM. For the same compound, the TGI in [1] is over 100 µM; in [2], 40.5 µM; in assay [3] it was 38.3 µM; in assay [4], 35.9 µM; in assay [5], 35.4 µM; in [6], 47.6 µM. In addition, the TGI in [7] was 24.4 µM; in [8], over 100 µM; in [9], over 100 µM.

For `Cc1ccc(-n2c3nc(=O)n(C)c(=O)c-3nc3ccccc32)cc1`, the TGI is 19.6 µM in assay [1]; over 100 µM in [2]; 34 µM in assay [4]; 39.7 µM in [5]; 35.8 µM in assay [6]; 54.6 µM in [7]. The results for the TGI in [8] and in assay [9] were 19.1 µM and 32.6 µM, respectively.

With `O=C1Nc2cc(Cl)ccc2N=CC1NC(=O)C(c1ccccc1)c1ccccc1Cl` (configuration not stated), the TGI in assay [1], in assay [2], in assay [4], in assay [5], in assay [6] and in assay [7] was over 100 µM in each case. For the same compound, the TGI in assay [8] and in assay [9] was over 100 µM each time.

In the case of `Cc1c(-c2ccccc2)c(=O)oc2ccc(Cl)cc12`, the TGI is over 100 µM in assay [1]; over 100 µM in assay [2]; over 100 µM in assay [4]; 43.7 µM in assay [5]; over 100 µM in assay [6]; over 100 µM in assay [7]. The TGI in assay [8] and in assay [9] was over 100 µM in each case.

Take `CCSC(SCC)c1cc2c(cc1Br)OCO2`: the TGI in assay [1] is over 100 µM; in assay [2] it was over 100 µM; in assay [4] it was over 100 µM; in assay [5], 62.9 µM; in assay [6], 38 µM; in assay [7], 60.3 µM. Further, the TGI is 44.8 µM in assay [8] and over 100 µM in assay [9].

Regarding `NC(=NCCCC1(c2ccccc2)CCCC1)Nc1ccc(Cl)cc1`, the GI50 was 1.85 µM in assay [1]; 1.68 µM in assay [2]; 1.77 µM in [3]; 1.77 µM in [4]; 1.07 µM in [5]; 1.73 µM in [6]. Moreover, the GI50 in assay [7] was 1.89 µM; in assay [8], 1.72 µM; in assay [9], 1.68 µM. For the same compound, the TGI in [1] turned out to be 3.85 µM; in [2], 3.13 µM; in [3], 3.21 µM; in assay [4] it was 3.37 µM; in assay [5], 2.31 µM; in [6] it was 3.67 µM. In addition, the TGI worked out at 4.08 µM in assay [7], 3.17 µM in assay [8] and 3.32 µM in assay [9].

As for `CCN(CC)c1ccc(C2CC(c3cc(OC)c(OC)c(OC)c3)=NN2)cc1` (configuration not stated), the GI50 in assay [1] is 0.47 µM; in assay [2], 0.303 µM; in assay [3], 0.404 µM; in assay [4], 0.737 µM; in [5], 0.372 µM; in [6], 0.59 µM. Further, the GI50 in assay [7] is 0.632 µM; in assay [8], 0.365 µM; in [9], 0.295 µM. For the same compound, the TGI is over 100 µM in [1]; over 100 µM in assay [3]; over 100 µM in assay [4]; 2.7 µM in [6]; 7.91 µM in assay [7]; over 43 µM in assay [8]. The TGI in [9] amounted to 5.18 µM.

For the compound `O=C1OC(c2ccccc2)=N/C1=C\c1ccc2ccccc2c1`, the TGI in [1], in assay [2], in assay [4], in [5], in [7] and in assay [8] was over 100 µM in each case. Moreover, the TGI in assay [9] was over 100 µM.

As for `C=CCCOC(=O)CO[N+](=O)[O-]`, the TGI was over 100 µM in [1]; over 100 µM in assay [2]; over 100 µM in assay [4]; over 100 µM in assay [5]; 70.1 µM in assay [6]; over 100 µM in assay [7]. The TGI in assay [8] and in assay [9] was over 100 µM each time.

As for `CSc1nc(NC2OCC(OC(C)=O)C(OC(C)=O)C2OC(C)=O)c(N=C(C)C(C)=O)c(=O)n1C` (configuration not stated), the TGI in assay [1], in [2], in assay [4], in assay [5], in assay [6] and in assay [7] was over 100 µM each time. In [8], the TGI was over 100 µM.

On to `C#Cc1c(C)c(/C=C/C(C)=C/C=C/C(C)=C/C(=O)OC)n(C)c1C`, for which the TGI in assay [1], in assay [2], in assay [5], in assay [6], in [7] and in [8] was over 100 µM each time. Further, the TGI in [9] was over 100 µM.

As to `COc1cc(Br)c(CC2(C#N)c3ccccc3C3C(N2C(=O)c2ccccc2)C3(Cl)Cl)cc1OC` (configuration not stated), the TGI in [1] was over 65.5 µM; in [2] it was over 65.5 µM; in assay [4] it was over 65.5 µM; in assay [5], over 65.5 µM; in [6] it was 30.2 µM; in assay [7], over 65.5 µM. The TGI in assay [8] and in assay [9] was over 65.5 µM in each case.

`CCOC(=O)Cc1nc2ccccc2s1`: the TGI in [1] is 34.3 µM; in assay [2] it was 32.9 µM; in [4], 30.5 µM; in [5] it was 94.1 µM; in [6], 43.9 µM; in [8] it was 37.1 µM. In [9], this compound had a TGI of 41.1 µM.

Turning to `Cc1nnc(N=Nc2c(O)[nH]c3c(Cl)cc(Cl)cc23)n1N`, the TGI in [1], in [2], in assay [4], in [6], in [7] and in assay [8] was over 100 µM throughout. Further, the TGI in [9] was over 100 µM.

As to `O=C(Cc1nc2ccccc2s1)Nc1ccc(Cl)cc1`, the TGI in assay [1], in [2], in assay [4], in assay [5], in assay [6] and in assay [8] was over 100 µM each time. In assay [9], this compound yielded a TGI of over 100 µM.
